Where “and” joins values, the source holds several entries; their conditions need not be identical. Equal values may be shown once. Entries after “also recorded” stand apart in the source; their conditions may differ. Read-outs that look alike come from different tables or passages of the source.
Legend:
[1] = test system: Ehrlich's ascitic carcinoma; experiment: Incorporation of 14C-adenine and 14C-valine into cellular fraction of Ehrlich's ascitic carcinoma in vitro; type: cell-based, mouse; conditions: for Radioactivity incorporation, adenine: control 1060 cpm; for Radioactivity incorporation, valine: control 2455 cpm; for IC50 / activity at 75 µM / activity at 150 µM / activity at 18.75 µM / activity at 37.5 µM: Mus musculus, Ehrlich
Text: In Table 4, the effect of Tiloron (NSC 143969; 2,7-bis-[2-(diethylamino)ethoxy]fluorene-9-one) and 5-(2-dimethylaminoethoxy)-7-oxo-7H-benzo(c) fluorene hydrochloride are compared on incorporation of ^14 C-adenine and ^14 C-valine with the cellular fraction of Ehrlich's ascitic carcinoma (insoluble in trichloacetic acid). The tests in vitro reveal that the composition of the invention was more than 10 times as effective as Tiloron. The inhibition of incorporation of adenine and valine into the used system of tumor cells is considered as an indication of an anti-tumorous, cytostatic action. This biological activity of the described compound is considerably greater than that of its congener Tiloron. (See also Table 4.)
Effects of Tiloron and substance 13468 on incorporation of ^14
C-adenine and ^14 C-valine
into cellular fraction of Ehrlichs ascitic carcinoma, insoluble in
in vitro. Radioactivity incorporation expressed in cpm.
IC50 = concentration inhibiting incorporation by 50 percent.

Ehrlich tumor = experiment: Inhibition of incorporation of labelled substrate in Ehrlich tumor; type: cell-based; conditions: Mus musculus, substrate L-(U-14C) amino acid mixture
[2] = test system: human myelogenous leukemia cells; experiment: DNA biosynthesis inhibition in human myelogenous leukemia cells; type: cell-based
[3] = test system: haemolysins (antibody formation); experiment: Haemolysin titre in mouse serum after ram erythrocyte immunization; type: in vivo; conditions: day 9; for Haemolysins titre: control 37
Text: (§1) Haemagglutanin and haemolysin titres in mouse serum on day 9 after ram
(§2) immunization under effect of substance 13468. Substance injected
(§3) either for 5 days (2 days before, on day of, 2 days after immunization)
(§4) (2 days before, on day of, 8 days after immunization). Groups of 12
(§5) expressed by mean value of highest attenuation of serum eliciting

[4] = test system: haemagglutinins (antibody formation); experiment: Haemagglutinin titre in mouse serum after ram erythrocyte immunization; type: in vivo; conditions: for Haemagglutinins % of control titre / Haemagglutinins titre: day 9; for Haemagglutinins titre: control 343
Text: as §1, §2, §3, §4, §5

Acute toxicity in mice = conditions: mouse, in vivo, mice S, males 22-24 gram
Text: The anti-tumor compounds described herein have also been studied from the standpoint of toxicity and the conclusion drawn that they are not toxic to mammalian hosts. The toxicological data set forth in Table IX, below, supports this conclusion.

Yoshida's Tumor = experiment: Inhibition of incorporation of labelled substrates in Yoshida's tumor; type: cell-based; conditions: Rattus norvegicus, read-out: IC50
Text: Tumor growth may be observed clinically or in experiments in vivo, that is, with experimental animals, or in vitro, for example, in tissue cultures prepared from tumors. Assessment of tumor growth may be effected by measuring the weight of the tumor mass or, more effectively, by measuring the radioactivity after incorporation therein of certain substances of natural origin such as amino acids, adenine, thymidine and the like labelled with radioactive atoms such as ^14 C, ^3 H, etc.
Thus, by way of exemplification, the IC^50 values (inhibitory concentration which lowered the initial rate of ^14 C incorporation to 50% of control) are shown in Table VI, below (Yoshida's Tumor, (U-^14 C) amino acid mixture)
The ^IC 50 values of compound 13468 are also shown in Table VII with varying substrates.

In the case of `CN(C)CCOc1cc2c(c3ccccc13)-c1ccccc1C2=O.Cl` [compound 13468, 5-(2-Dimethylaminoethoxy)-7-oxo-7H-benzo(c) fluorene hydrochloride], the “Radioactivity incorporation, adenine” value ([1]; 75 μM) is reported as 266 cpm, the “Radioactivity incorporation, valine” value ([1]; 75 μM) is reported as 887 cpm and the “Radioactivity incorporation, adenine” value ([1]; 150 μM) is reported as 59 cpm. For the same molecule, the “Radioactivity incorporation, valine” value ([1]; 150 μM) was 349 cpm, the “Radioactivity incorporation, adenine” value ([1]; 18,75 μM) was 757 cpm and the “Radioactivity incorporation, valine” value ([1]; 18,75 μM) was 2394 cpm. For the same molecule, the “Radioactivity incorporation, adenine” value ([1]; 37,5 μM) was 714 cpm, the “Radioactivity incorporation, valine” value ([1]; 37,5 μM) was 2253 cpm and the IC50 ([1]; read-out: IC50 (concentration inhibiting incorporation by 50 percent), adenine) was 53 µM. It also gave an IC50 ([1]; read-out: IC50 (concentration inhibiting incorporation by 50 percent), valine) of 65 µM, an activity at 75 µM ([1]; 75 μM, read-out: Incorporation of adenine relative to control (0 μM = 100%)) of 25% and an activity at 75 µM ([1]; 75 μM, read-out: Incorporation of valine relative to control (0 μM = 100%)) of 36%. For the same molecule, the activity at 150 µM ([1]; 150 μM, read-out: Incorporation of adenine relative to control (0 μM = 100%)) was 6%, the activity at 150 µM ([1]; 150 μM, read-out: Incorporation of valine relative to control (0 μM = 100%)) was 14% and the activity at 18.75 µM ([1]; 18,75 μM, read-out: Incorporation of adenine relative to control (0 μM = 100%)) was 71%. For the same molecule, the activity at 18.75 µM ([1]; 18,75 μM, read-out: Incorporation of valine relative to control (0 μM = 100%)) was 98%, the activity at 37.5 µM ([1]; 37,5 μM, read-out: Incorporation of adenine relative to control (0 μM = 100%)) was 87% and the activity at 37.5 µM ([1]; 37,5 μM, read-out: Incorporation of valine relative to control (0 μM = 100%)) was 92%. The “times as effective as Tiloron” value ([1]; adenine and valine incorporation, in vitro) was “more than 10 times”, the IC50 (Ehrlich tumor) was 31 µM and the IC50 [2] was 5 µM. The “Haemolysins % of control titre” value ([3]; s.c. 5×8 mg/kg) was 132%, the Haemolysins titre ([3]; s.c. 5×8 mg/kg) was 49 and the “Haemolysins % of control titre” value ([3]; s.c. 5×40 mg/kg) was “under 27%”. The Haemolysins titre ([3]; s.c. 5×40 mg/kg, Suppressed) was “under 10”, the “Haemolysins % of control titre” value ([3]; s.c. 11×8 mg/kg) was “under 27%” and the Haemolysins titre ([3]; s.c. 11×8 mg/kg, Suppressed) was “under 10”. For the same molecule, the “Haemolysins % of control titre” value ([3]; s.c. 11×40 mg/kg) was “under 27%”, the Haemolysins titre ([3]; s.c. 11×40 mg/kg, Suppressed) was “under 10” and the “Immunosuppressive effect on antibody formation” value ([4]; mice, in words, hydrochloride) was “immunosuppressive effects on antibody formation in mice; also recorded: inhibition of the formation of immunological serum anti-bodies”. For the same molecule, the “Haemagglutinins % of control titre” value ([4]; s.c. 5×8 mg/kg) was 71%, the Haemagglutinins titre ([4]; s.c. 5×8 mg/kg) was 243 and the “Haemagglutinins % of control titre” value ([4]; s.c. 5×40 mg/kg) was 3.5%. For the same molecule, the Haemagglutinins titre ([4]; s.c. 5×40 mg/kg) was 12, the “Haemagglutinins % of control titre” value ([4]; s.c. 11×8 mg/kg) was 71% and the Haemagglutinins titre ([4]; s.c. 11×8 mg/kg) was 243. The “Haemagglutinins % of control titre” value ([4]; s.c. 11×40 mg/kg, Suppressed) was “under 2.9%”, the Haemagglutinins titre ([4]; s.c. 11×40 mg/kg, Suppressed) was “under 10” and the LD50 (Acute toxicity in mice; iv, intravenously) was 90 mg/kg. For the same molecule, the LD50 (Acute toxicity in mice; po, orally) was 600 mg/kg, the LD50 (Acute toxicity in mice; sc, subcutaneously) was 490 mg/kg and the IC50 (Yoshida's Tumor; substrate 5-iodo-2-deoxy(6-3H) uridine) was 12 µM. For the same molecule, the IC50 (Yoshida's Tumor; substrate (6-3H) uridine) was 36 µM and 12.6 µg/mL, the IC50 (Yoshida's Tumor; substrate (thymine U-14C) thymidine) was 4 µM and the IC50 (Yoshida's Tumor; substrate L-(U-14)leucine) was 29 µM. The IC50 (Yoshida's Tumor; substrate L-(U-14C) amino acid mixture, Table VII) was 32 µM.

From patent US4661297A, “Basic ethers of 7-oxo-7H-benzo(c) fluorene and a process for their production” (SPOFA, spojene podniky pro zdravotnickou vyrobu, priority 1980, dated 1987)
